# Experimental data reported in patent publication US9095604B2, “Composition for preventing inflammations” (Meiji Co, Ltd., priority 2010, dated 2015).
# Key:
# [1] = tested on: ulcerative colitis induced by dextran sodium sulfate (DSS); settings: cited from earlier work
# [2] = tested on: aryl hydrocarbon receptor (AhR); test: SEAP reporter assay in HeXS34 cells (pXRE-SEAP) for AhR-activating potency; format: cell-based, mouse; settings: 10 μM αNF preincubated 30 minutes, then 10% v/v OLL1181 for 24 hours
# Procedure: The HeXS34 cells prepared in (1) maintained in MEMα medium (Invitrogen, Carlsbad, Calif.) supplemented with 10% fetal bovine serum (FBS) were sown on a 96 well plate at 5000 cells/90 μL per well, and cultured for 24 hours in the presence of and in the absence of 10 μL (5×10^9 cells/mL) of a freeze-dried heat-sterilized lactic acid bacterium strain. […] Culture supernatants were subsequently subjected to an SEAP assay. The culture supernatant obtained in (2) was subjected to quantitative determination of SEAP by a chemiluminescence method using a Great EscAPe SEAP Chemiluminescence kit (Clontech). The assay was carried out three times, and the average value was determined using the luminescence intensity (LU) so obtained as the SEAP activity. […] In the same way as for Example 1, stimulation was carried out for 24 hours using heat-sterilized suspensions of the two types of lactic acid bacterium strains (5×10^9 cells/mL solution was added at 5% v/v and 10% v/v), and the culture supernatant was subjected to SEAP assay. […] (3).
# [3] = tested on: CYP1A1 expression in Caco2 cells; test: CYP1A1 expression in Caco2 cells by quantitative real-time PCR; format: cell-based, human; settings: 5 μM αNF preincubated 30 minutes
# Procedure: Human Caco2 cells were cultured in DMEM medium (Invitrogen/Gibco, Carlsbad, Calif.) supplemented with 10% FBS and an antibiotic, a portion was preincubated with 5 μM αNF for 30 minutes, and both that which had been preincubated and that which had not been preincubated were subjected to stimulation with a 10% v/v heat-sterilized OLL1181 strain suspension for 4 hours.
# The Caco2 cells obtained in (1) were subjected to quantitative real-time PCR. The quantitative real-time PCR was carried out using an ABI 7300 real-time PCR system (Applied Biosystems, Foster City, Calif.) in accordance with an instruction manual. With regard to a primer and a probe, those for human CYP1A1 (Assay ID: Hs02382618_s1) and those for glyceraldehyde-3-phosphate dehydrogenase (GAPDH) (Assay ID: Hs99999905_m1) (Applied Biosystems) were used. The level of CYP1A1 gene expression relative to the level of GAPDH gene expression was calculated and defined as the relative level of CYP1A1 gene expression.
# [4] = tested on: PGE2 secretion by Caco2 cells; test: Prostaglandin E2 (PGE2) ELISA of Caco2 culture supernatant; format: cell-based; settings: human Caco2 cells, αNF preincubation
# [5] = DSS-treated mouse, compared with no TCDD
Effect on the OLL1181-induced increase of CYP1A1 expression [3],SMILES,"Inflammation score [1, 5]","Production of inflammatory cytokines [1, 5]","Shortening of the intestinal tract [1, 5]","Weight loss [1, 5]","Inflammatory response of ulcerative colitis induced by DSS ([1]; mouse, in vivo)",Effect on the increase in SEAP activity caused by stimulation with the OLL1181 strain [2],Effect on PGE2 production by stimulation with the OLL1181 strain [4]
,"Clc1cc2c(cc1Cl)Oc1cc(Cl)c(Cl)cc1O2 [TCDD, 2,3,7,8-tetrachlorodibenzo-p-dioxin]",significantly suppressed,significantly suppressed,significantly suppressed,significantly suppressed,suppresses,,
significantly suppressed,"O=c1cc(-c2ccccc2)oc2c1ccc1ccccc12 [αNF, α-naphthoflavone]",,,,,,significantly inhibited,inhibited
